Assay [1] deals with T1, human serotonin transporter (Homo sapiens, UniProt P31645).
T1 construct: expressed in transfected cells; host or cells: HEK-293
Kind of assay: hSERT receptor binding ([125I]-RTI-55 radioligand). To be noted: membranes of HEK-293 cells transfected with human serotonin transporter cDNA; 50 pM [125I]-RTI-55; IC50 converted by Cheng-Prusoff; read-out: SERT Ki. As for the experimental part:
Cell pastes of HEK-293 cells transfected with a human serotonin transporter cDNA were prepared. The cell pastes were resuspended in 400 to 700 ml of Krebs-HEPES assay buffer (25 mM HEPES, 122 mM NaCl, 3 mM KCl, 1.2 mM MgSO4, 1.3 mM CaCl2, and 11 mM glucose, pH 7.4) with a Polytron homogenizer at Setting 7 for 30 seconds. Aliquots of membranes (˜2.5 mg/ml protein) were stored in liquid nitrogen until used.
Assays were set up in FlashPlates pre-coated with 0.1% PEI in a total volume of 250 μl containing: test compound (10^−5M to 10^−12M), cell membranes, and 50 pM [^125I]-RTI-55 (Perkin Elmer, NEX-272; specific activity 2200 Ci/mmol). The reaction was incubated and gently agitated for 90 minutes at room temperature, and terminated by removal of assay volume. Plates were covered, and bound [^125I]-RTI-55 was determined using a Wallac Trilux Beta Plate Counter. Test compounds were run in duplicate, and specific binding was defined as the difference between binding in the presence and absence of 10 μM citalopram.
Excel and GraphPad Prism software were used for data calculation and analysis. IC50 values were converted to Ki values using the Cheng-Prusoff equation.

Assay [2] has as its target T2, human norepinephrine transporter (Homo sapiens, UniProt P23975).
T2 construct: expressed in transfected cells; host or cells: HEK-293
Kind of assay: hNET receptor binding ([125I]-RTI-55 radioligand). To be noted: membranes of HEK-293 cells transfected with human norepinephrine transporter cDNA; 50 pM [125I]-RTI-55; IC50 converted by Cheng-Prusoff; read-out: NET Ki. As for the experimental part: Cell pastes of HEK-293 cells transfected with a human norepinephrine transporter cDNA were prepared. The cell pastes were resuspended in 400 to 700 ml of Krebs-HEPES assay buffer (25 mM HEPES, 122 mM NaCl, 3 mM KCl, 1.2 mM MgSO4, 1.3 mM CaCl2, and 11 mM glucose, pH 7.4) with a Polytron homogenizer at setting 7 for 30 seconds. Aliquots of membranes (5 mg/ml protein) were stored in liquid nitrogen until used.
The binding assay was set up in Beckman deep-well polypropylene plates with a total volume of 250 μl containing: test compound (10^−5M to 10^−12M), cell membranes, and 50 pM [^125I]-RTI-55 (Perkin Elmer, NEX-272; specific activity 2200 Ci/mmol). The reaction was incubated by gentle agitation for 90 minutes at room temperature and was terminated by filtration through Whatman GF/C filter plates using a Brandel 96-well plate harvester. Scintillation fluid (100 μl) was added to each well, and bound [^125I]-RTI-55 was determined using a Wallac Trilux Beta Plate Counter. Test compounds were run in duplicate, and specific binding was defined as the difference between binding in the presence and absence of 10 μM desipramine.
Excel and GraphPad Prism software were used for data calculation and analysis. IC50 values were converted to K, values using the Cheng-Prusoff equation.

Structures can show the parent of a compound that is named as a salt.

The Ki is the equilibrium dissociation constant of an inhibitor or competing ligand from its target.

T2 sequence (P23975 whole entry): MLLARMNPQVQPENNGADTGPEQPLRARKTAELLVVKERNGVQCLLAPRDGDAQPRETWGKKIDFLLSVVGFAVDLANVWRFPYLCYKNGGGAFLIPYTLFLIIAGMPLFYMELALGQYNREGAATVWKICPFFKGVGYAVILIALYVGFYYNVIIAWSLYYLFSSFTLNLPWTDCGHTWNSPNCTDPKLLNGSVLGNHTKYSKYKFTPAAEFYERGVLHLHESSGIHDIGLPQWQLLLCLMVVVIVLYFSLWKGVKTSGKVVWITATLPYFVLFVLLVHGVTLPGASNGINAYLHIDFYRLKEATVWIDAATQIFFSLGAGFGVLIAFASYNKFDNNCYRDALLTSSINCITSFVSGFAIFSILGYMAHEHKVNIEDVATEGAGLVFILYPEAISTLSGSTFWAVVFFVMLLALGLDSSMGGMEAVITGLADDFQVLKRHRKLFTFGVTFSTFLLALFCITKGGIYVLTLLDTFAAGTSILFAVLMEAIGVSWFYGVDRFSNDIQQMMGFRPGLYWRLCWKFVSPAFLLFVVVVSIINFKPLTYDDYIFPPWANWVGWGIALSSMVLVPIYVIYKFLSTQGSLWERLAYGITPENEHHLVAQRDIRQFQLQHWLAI
T1 sequence (P31645 whole entry): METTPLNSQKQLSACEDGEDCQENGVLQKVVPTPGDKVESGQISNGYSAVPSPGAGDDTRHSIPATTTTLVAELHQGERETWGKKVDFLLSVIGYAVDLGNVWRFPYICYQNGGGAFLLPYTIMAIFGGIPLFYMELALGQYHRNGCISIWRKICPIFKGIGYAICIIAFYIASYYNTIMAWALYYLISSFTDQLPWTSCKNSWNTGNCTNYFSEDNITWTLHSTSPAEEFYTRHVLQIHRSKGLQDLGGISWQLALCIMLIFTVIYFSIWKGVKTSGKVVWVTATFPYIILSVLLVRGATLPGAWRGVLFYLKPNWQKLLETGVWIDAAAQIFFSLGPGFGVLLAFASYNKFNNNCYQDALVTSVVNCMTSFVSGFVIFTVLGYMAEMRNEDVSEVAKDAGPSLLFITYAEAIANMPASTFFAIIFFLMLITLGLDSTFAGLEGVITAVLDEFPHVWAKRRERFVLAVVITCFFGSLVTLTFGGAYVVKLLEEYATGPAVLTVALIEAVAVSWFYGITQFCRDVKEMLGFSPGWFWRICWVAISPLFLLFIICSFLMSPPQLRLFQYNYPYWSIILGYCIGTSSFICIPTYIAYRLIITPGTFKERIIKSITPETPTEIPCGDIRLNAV

With `Fc1ccc(-c2ncccc2CO[C@H]2CCNC2)cc1F` [Example B-3, (S)-2-(3,4-Difluoro-phenyl)-3-(pyrrolidin-3-yloxymethyl)-pyridine fumarate], the Ki in assay [1] came out at 1200 nM; in assay [2], 310 nM.
`Fc1ccc(F)c(-c2cccnc2CO[C@H]2CCNC2)c1` [Example C-1, (S)-3-(2,5-Difluoro-phenyl)-2-(pyrrolidin-3-yloxymethyl)-pyridine fumarate]: the figures for the Ki in assay [1] and in assay [2] were 108 nM and 382 nM, respectively.
On the same counts, the results for `Fc1cccc(-c2cccnc2CO[C@H]2CCNC2)c1F` [Example C-2, (S)-3-(2,3-Difluoro-phenyl)-2-(pyrrolidin-3-yloxymethyl)-pyridine fumarate] are 74.6 nM and 845 nM.
On the same counts, the results for `CCOc1cccc(-c2ccccc2CO[C@H]2CCNC2)c1` [Example D-1, (S)-3-(3′-Ethoxy-biphenyl-2-ylmethoxy)-pyrrolidine] are 39.2 nM and 4.84 nM.
`COc1ccc(-c2ccccc2CO[C@H]2CCNC2)cc1C` [Example D-2, (S)-3-(4′-Methoxy-3′-methyl-biphenyl-2-ylmethoxy)-pyrrolidine]: the inhibition constant Ki in assay [1] worked out at 261 nM; in assay [2], 8.42 nM.
On to `Fc1ccccc1-c1ccccc1CO[C@H]1CCNC1` [Example D-3, (S)-3-(2′-Fluoro-biphenyl-2-ylmethoxy)-pyrrolidine], for which the Ki turned out to be 304 nM in assay [1] and 14.7 nM in assay [2].
`Clc1ccc(-c2ccccc2CO[C@H]2CCNC2)cc1Cl` [Example D-4, (S)-3-(3′,4′-Dichloro-biphenyl-2-ylmethoxy)-pyrrolidine]: the inhibition constant (Ki) is 18.3 nM in assay [1] and 15.1 nM in assay [2].
For `CC(C)N(C(=O)c1ccccc1-c1ccccc1CO[C@H]1CCNC1)C(C)C` [Example D-5, (S)-2′-(Pyrrolidin-3-yloxymethyl)-biphenyl-2-carboxylic acid diisopropylamide], the values for the inhibition constant Ki in assay [1] and in assay [2] were 197 nM and 17.9 nM, respectively.
For the molecule `Fc1cccc(-c2ccccc2CO[C@H]2CCNC2)c1` [Example D-6, (S)-3-(3′-Fluoro-biphenyl-2-ylmethoxy)-pyrrolidine], the Ki in assay [1] was 18.4 nM; in assay [2] it was 18.5 nM.
Consider `Cc1ccc(-c2ccccc2CO[C@H]2CCNC2)cc1C` [Example D-7, (S)-3-(3′,4′-Dimethyl-biphenyl-2-ylmethoxy)-pyrrolidine], for which the Ki in assay [1] was 110 nM; in assay [2] it was 21.3 nM.
`Fc1ccc(F)c(-c2ccccc2CO[C@H]2CCNC2)c1` [Example D-8, (S)-3-(2′,5′-Difluoro-biphenyl-2-ylmethoxy)-pyrrolidine]: the inhibition constant Ki came out at 208 nM in assay [1] and 21.9 nM in assay [2].
For `Fc1ccccc1-c1ccccc1CO[C@H]1CCNC1` [Example D-10, (S)-3-(2′-Fluoro-biphenyl-2-ylmethoxy)-pyrrolidine], the Ki was 317 nM in assay [1] and 26.5 nM in assay [2].
In the case of `Cc1cc(-c2ccccc2CO[C@H]2CCNC2)ccc1F` [Example D-11, (S)-3-(4′-Fluoro-3′-methyl-biphenyl-2-ylmethoxy)-pyrrolidine], the inhibition constant (Ki) was 26.7 nM in assay [1] and 39.6 nM in assay [2].
On to `Clc1ccc(-c2ccccc2CO[C@H]2CCNC2)cc1` [Example D-12, (S)-3-(4′-Chloro-biphenyl-2-ylmethoxy)-pyrrolidine], for which the inhibition constant (Ki) in assay [1] was found to be 101 nM; in assay [2], 41.6 nM.
On the same counts, the results for `Clc1cccc(-c2ccccc2CO[C@H]2CCNC2)c1` [Example D-13, (S)-3-(3′-Chloro-biphenyl-2-ylmethoxy)-pyrrolidine] are 21.6 nM and 43.8 nM.
On the same counts, the results for `Fc1ccc(-c2ccccc2CO[C@H]2CCNC2)cc1Cl` [Example D-14, (S)-3-(3′-Chloro-4′-fluoro-biphenyl-2-ylmethoxy)-pyrrolidine] are 15.1 nM and 47.3 nM.
On the same counts, the results for `c1ccc(-c2cccc3ccccc23)c(CO[C@H]2CCNC2)c1` [Example D-15, (S)-3-(2-Naphthalen-1-yl-benzyloxy)-pyrrolidine] are 272 nM and 55.4 nM.
As to `Cc1cccc(-c2ccccc2CO[C@H]2CCNC2)c1` [Example D-16, (S)-3-(3′-Methyl-biphenyl-2-ylmethoxy)-pyrrolidine], the Ki in assay [1] turned out to be 24.7 nM; in assay [2] it was 63.5 nM.
Take `FC(F)(F)Oc1cccc(-c2ccccc2CO[C@H]2CCNC2)c1` [Example D-17, (S)-3-(3′-Trifluoromethoxy-biphenyl-2-ylmethoxy)-pyrrolidine]: the figures for the Ki in assay [1] and in assay [2] were 30.6 nM and 87 nM, respectively.
As for `Fc1ccc(Cl)c(-c2ccccc2CO[C@H]2CCNC2)c1` [Example D-18, (S)-3-(2′-Chloro-5′-fluoro-biphenyl-2-ylmethoxy)-pyrrolidine], the Ki in assay [1] worked out at 218 nM; in assay [2] it was 102 nM.
`Clc1ccccc1-c1ccccc1CO[C@H]1CCNC1` [Example D-19, (S)-3-(2′-Chloro-biphenyl-2-ylmethoxy)-pyrrolidine]: the Ki came to 346 nM in assay [1] and 108 nM in assay [2].
Turning to `CSc1cccc(-c2ccccc2CO[C@H]2CCNC2)c1` [Example D-20, (S)-3-(3′-Methylsulfanyl-biphenyl-2-ylmethoxy)-pyrrolidine], the figures for the inhibition constant (Ki) in assay [1] and in assay [2] were 24.8 nM and 108 nM, respectively.
Turning to `COc1ccc(-c2ccccc2CO[C@H]2CCNC2)cc1F` [Example D-21, (S)-3-(3′-Fluoro-4′-methoxy-biphenyl-2-ylmethoxy)-pyrrolidine], the results for the Ki in assay [1] and in assay [2] were 431 nM and 113 nM, respectively.
Consider `COc1cccc(-c2ccccc2CO[C@H]2CCNC2)c1` [Example D-22, (S)-3-(3′-Methoxy-biphenyl-2-ylmethoxy)-pyrrolidine], for which the figures for the inhibition constant Ki in assay [1] and in assay [2] were 27.3 nM and 139 nM, respectively.
`COc1ccccc1-c1ccccc1CO[C@H]1CCNC1` [Example D-24, (S)-3-(2′-Methoxy-biphenyl-2-ylmethoxy)-pyrrolidine]: the figures for the Ki in assay [1] and in assay [2] were 1260 nM and 230 nM, respectively.
For `COc1c(C)cc(-c2ccccc2CO[C@H]2CCNC2)cc1C` [Example D-25, (S)-(4′-Methoxy-3′,5′-dimethyl-biphenyl-2-ylmethoxy)-pyrroldine], the Ki was 124 nM in assay [1] and 269 nM in assay [2].
`Cc1ccccc1-c1ccccc1CO[C@H]1CCNC1` [Example D-26, (S)-3-(2′-Methyl-biphenyl-2-ylmethoxy)-pyrrolidine]: the inhibitory constant (Ki) turned out to be 457 nM in assay [1] and 277 nM in assay [2].
Consider `Cc1cc(C)cc(-c2ccccc2CO[C@H]2CCNC2)c1` [Example D-27, (S)-3-(3′,5′-Dimethyl-biphenyl-2-ylmethoxy)-pyrrolidine], for which the inhibitory constant (Ki) in assay [1] stood at 91.9 nM; in assay [2], 295 nM.
Consider `COc1ccc(-c2ccccc2CO[C@H]2CCNC2)cc1` [Example D-28, (S)-3-(4′-Methoxy-biphenyl-2-ylmethoxy)-pyrrolidine], for which the inhibition constant (Ki) was found to be 1100 nM in assay [1] and 301 nM in assay [2].
As for `c1ccc(-c2ccc3ccccc3c2)c(CO[C@H]2CCNC2)c1` [Example D-29, (S)-3-(2-Naphthalen-2-yl-benzyloxy)-pyrroldine], the inhibitory constant (Ki) in assay [1] turned out to be 172 nM; in assay [2], 314 nM.
For the molecule `N#Cc1cccc(-c2ccccc2CO[C@H]2CCNC2)c1` [Example D-30], the figures for the Ki in assay [1] and in assay [2] were 285 nM and 371 nM, respectively.
Turning to `COc1ccccc1-c1ccccc1CO[C@H]1CCNC1` [Example D-31, (S)-3-(2′-Methoxy-biphenyl-2-ylmethoxy)-pyrrolidine], the Ki in assay [1] turned out to be 3100 nM; in assay [2], 464 nM.
Regarding `c1ccc(-c2ccc3c(c2)CCO3)c(CO[C@H]2CCNC2)c1` [Example D-32, (S)-3-[2-(2,3-Dihydro-benzofuran-5-yl)-benzyloxy]-pyrrolidine], the results for the inhibition constant Ki in assay [1] and in assay [2] were 549 nM and 516 nM, respectively.
In the case of `Cc1cccc(-c2ccccc2CO[C@H]2CCNC2)c1C` [Example D-33, (S)-3-(2′,3′-Dimethyl-biphenyl-2-ylmethoxy)-pyrrolidine], the inhibitory constant (Ki) in assay [1] is 28.9 nM; in assay [2], 526 nM.

The record behind these values is US20090215857A1 (Pfizer Products Inc., priority 2005, published 2009).
